Reference: ChEMBL document CHEMBL1126574, “Non-peptide angiotensin II receptor antagonists. 2. Design, synthesis, and biological activity of N-substituted (phenylamino)phenylacetic acids and acyl sulfonamides” (J Med Chem, 1993)

What was measured:
[1] = target: T1, Type-2 angiotensin II receptor (Rattus norvegicus, UniProt P35351); assay: In vitro antagonist activity against angiotensin II type 2 (AT2) receptor in rat midbrain using [125I]- Sar, Ile AII.; format: functional
T1 sequence (P35351 whole entry): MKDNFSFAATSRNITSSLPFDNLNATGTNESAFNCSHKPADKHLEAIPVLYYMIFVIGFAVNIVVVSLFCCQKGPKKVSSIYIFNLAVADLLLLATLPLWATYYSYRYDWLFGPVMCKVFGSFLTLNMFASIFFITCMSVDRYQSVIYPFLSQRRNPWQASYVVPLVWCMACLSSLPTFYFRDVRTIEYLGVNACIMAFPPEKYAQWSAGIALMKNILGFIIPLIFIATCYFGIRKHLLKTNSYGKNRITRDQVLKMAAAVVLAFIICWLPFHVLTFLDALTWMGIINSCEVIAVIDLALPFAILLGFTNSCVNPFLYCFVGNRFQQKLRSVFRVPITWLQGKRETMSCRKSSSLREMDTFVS

[2] = target: T2, Type-1 angiotensin II receptor (Oryctolagus cuniculus, UniProt P34976); assay: In vitro antagonist activity against angiotensin II receptor type 1 in rabbit aorta using [125I]-Sar, Ile AII.; format: functional, tissue-based
T2 sequence (P34976 whole entry): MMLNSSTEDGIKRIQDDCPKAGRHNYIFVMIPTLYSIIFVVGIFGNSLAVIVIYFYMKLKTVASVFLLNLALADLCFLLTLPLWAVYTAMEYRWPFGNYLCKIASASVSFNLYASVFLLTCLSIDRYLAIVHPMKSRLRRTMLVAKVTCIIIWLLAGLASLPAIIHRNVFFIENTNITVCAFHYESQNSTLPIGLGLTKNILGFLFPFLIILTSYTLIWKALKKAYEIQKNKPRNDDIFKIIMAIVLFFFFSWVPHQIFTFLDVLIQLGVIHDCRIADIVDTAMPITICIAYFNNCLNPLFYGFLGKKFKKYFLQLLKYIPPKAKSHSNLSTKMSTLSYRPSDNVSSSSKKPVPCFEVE

| IC50 [1] | IC50 [2] | SMILES |
| --- | --- | --- |
| 8800 nM | 200 nM | C=CCN(c1ccc(Cn2c(CC)nc3c(C)cc(C)nc32)cc1)C(C(=O)O)c1cc(F)ccc1F (stereo not given) |
| 490 nM | 5.3 nM | C=CCN(c1ccc(Cn2c(CC)nc3c(C)cc(C)nc32)cc1)C(C(=O)O)c1ccccc1 (stereo not given) |
| 560 nM | 5.3 nM | CCCN(c1ccc(Cn2c(CC)nc3c(C)cc(C)nc32)cc1)C(C(=O)O)c1ccccc1 (stereo not given) |
| > 10000 nM | 380 nM | CCc1nc2c(C)cc(C)nc2n1Cc1ccc(N(CC)C(C(=O)O)c2ccccc2Cl)cc1 (stereo not given) |
| 8600 nM | 10 nM | CCc1nc2c(C)cc(C)nc2n1Cc1ccc(N(CC)C(C(=O)O)c2ccccc2)c(C)c1 (stereo not given) |
| 4800 nM | 12 nM | CCCN(c1ccc(Cn2c(CC)nc3c(C)cc(C)nc32)cc1C)C(C(=O)O)c1ccccc1 (stereo not given) |
| 1600 nM | 80 nM | CCc1nc2c(C)cc(C)nc2n1Cc1ccc(N(C(C)CC)C(C(=O)O)c2ccccc2)cc1 (stereo not given) |
| 3400 nM | 8.2 nM | CCc1nc2c(C)cc(C)nc2n1Cc1ccc(N(C)C(C(=O)O)c2ccccc2)cc1 (stereo not given) |
| > 10000 nM |  | CCc1nc2c(C)cc(C)nc2n1Cc1ccc(-c2ccccc2-c2nnn[nH]2)cc1 [L-158809] |
| 11000 nM | 82 nM | C=CCN(c1ccc(Cn2c(CC)nc3c(C)cc(C)nc32)cc1C)C(C(=O)O)c1ccccc1C (stereo not given) |
| > 10000 nM | > 100 nM | CCc1nc2c(C)cc(C)nc2n1Cc1ccc(N(C)C(C(=O)O)c2cc(F)ccc2F)cc1 (stereo not given) |
| 660 nM | 94 nM | CCCCN(c1ccc(Cn2c(CC)nc3c(C)cc(C)nc32)cc1)C(C(=O)O)c1ccccc1 (stereo not given) |
| > 30000 nM | 15 nM | CCc1nc2c(C)cc(C)nc2n1Cc1ccc(N(C)C(c2ccccc2)c2nnn[nH]2)cc1 (stereo not given) |
| 4300 nM | 34 nM | C=CCN(c1ccc(Cn2c(CC)nc3c(C)cc(C)nc32)cc1C)C(C(=O)O)c1ccccc1 (stereo not given) |

The remaining lines, values behind:

| SMILES | IC50 [1] | IC50 [2] |
| --- | --- | --- |
| CCc1nc2c(C)cc(C)nc2n1Cc1ccc(N(CC)C(C(=O)O)c2ccccc2)cc1 (stereo not given) | 740 nM | 4 nM |
| CCCN(c1ccc(Cn2c(CC)nc3c(C)cc(C)nc32)cc1)C(C(=O)NS(=O)(=O)c1ccccc1)c1ccccc1 (stereo not given) | 420 nM | 0.8 nM |
| CCc1nc2c(C)cc(C)nc2n1Cc1ccc(NC(C(=O)O)c2ccccc2C)c(C)c1 (stereo not given) | 19000 nM | 28 nM |
| CCc1nc2c(C)cc(C)nc2n1Cc1ccc(NC(C(=O)O)c2ccccc2)cc1 (stereo not given) | 21000 nM | 200 nM |
| CCc1nc2c(C)cc(C)nc2n1Cc1ccc(N(CC2CC2)C(C(=O)O)c2ccccc2)cc1 (stereo not given) | 2200 nM | 31 nM |
| CCc1nc2c(C)cc(C)nc2n1Cc1ccc(NC(C(=O)O)c2ccccc2)c(C)c1 (stereo not given) | 11000 nM | 100 nM |
| CCc1nc2c(C)cc(C)nc2n1Cc1ccc(N(CC)C(C(=O)O)c2cccc(C)c2)cc1 (stereo not given) | 2100 nM | 66 nM |
| CCc1nc2c(C)cc(C)nc2n1Cc1ccc(N(C)C(C(=O)O)c2ccccc2)c(C)c1 (stereo not given) | 11000 nM | 70 nM |
| CCc1nc2c(C)cc(C)nc2n1Cc1ccc(NC(C(=O)O)c2cc(C(F)(F)F)cc(C(F)(F)F)c2)cc1 (stereo not given) | 6000 nM | 860 nM |
| CCc1nc2c(C)cc(C)nc2n1Cc1ccc(N(CC)C(C(=O)O)c2cc(F)ccc2F)cc1 (stereo not given) | > 10000 nM | 88 nM |
| CCc1nc2c(C)cc(C)nc2n1Cc1ccc(N(CC)C(C(=O)NS(=O)(=O)c2ccccc2)c2ccccc2)cc1 (stereo not given) | 200 nM | 0.9 nM |
| CCc1nc2c(C)cc(C)nc2n1Cc1ccc(N(CC(C)C)C(C(=O)O)c2ccccc2)cc1 (stereo not given) | > 300 nM | 22 nM |
| C=CCN(c1ccc(Cn2c(CC)nc3c(C)cc(C)nc32)cc1)C(C(=O)NS(=O)(=O)c1ccccc1)c1ccccc1 (stereo not given) | 2900 nM | 1 nM |
| CCc1nc2c(C)cc(C)nc2n1Cc1ccc(N(CC)C(C(=O)O)c2cc(C(F)(F)F)cc(C(F)(F)F)c2)cc1 (stereo not given) | 12000 nM | 1900 nM |
